Data: ChEMBL document CHEMBL3045539, “Synthesis, DNA affinity, and antimicrobial activity of 4-substituted phenyl-2,2-bichalcophenes and aza-analogues” (Med Chem Res, 2012)
Values after ≈ are worked out from the molar mass of the structure shown. Active and inactive are the calls of the source. No cut-off for these calls is given here.

Assays:
Escherichia coli [1] = assay: Induction of Escherichia coli AB1157 DNA degradation after 1 hr by agarose gel electrophoresis
Albumin = Albumin (Bos taurus, UniProt P02769); assay: Induction of Bos taurus (bovine) serum albumin degradation after 1 hr by SDS-PAGE analysis; details: cattle
Albumin, sequence (P02769 whole entry): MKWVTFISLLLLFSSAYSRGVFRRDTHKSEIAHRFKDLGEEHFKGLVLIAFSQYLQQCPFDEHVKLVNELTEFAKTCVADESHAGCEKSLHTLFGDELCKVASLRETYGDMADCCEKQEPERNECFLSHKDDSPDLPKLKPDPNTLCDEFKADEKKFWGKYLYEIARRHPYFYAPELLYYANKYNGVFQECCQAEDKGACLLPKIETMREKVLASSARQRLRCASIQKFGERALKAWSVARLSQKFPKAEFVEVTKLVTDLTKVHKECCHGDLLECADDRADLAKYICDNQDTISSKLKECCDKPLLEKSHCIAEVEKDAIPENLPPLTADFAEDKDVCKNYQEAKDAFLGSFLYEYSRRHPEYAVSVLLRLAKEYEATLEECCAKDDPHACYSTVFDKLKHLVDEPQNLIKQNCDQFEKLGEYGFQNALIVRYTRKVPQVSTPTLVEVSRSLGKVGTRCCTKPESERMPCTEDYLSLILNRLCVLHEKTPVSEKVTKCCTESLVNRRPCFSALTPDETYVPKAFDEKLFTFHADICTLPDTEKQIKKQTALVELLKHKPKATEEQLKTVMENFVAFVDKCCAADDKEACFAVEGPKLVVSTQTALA

[2] = Antioxidant activity assessed as SOD-like activity measuring inhibition of superoxide radical production at 50 ug after 30 min by NBT reduction assay; format: functional
Saccharomyces cerevisiae [3] = assay: Antimicrobial activity against Saccharomyces cerevisiae after 24 hr by CLSI liquid dilution method; format: functional
Staphylococcus aureus [4] = assay: Antimicrobial activity against Staphylococcus aureus after 24 hr by CLSI liquid dilution method; format: functional
Pseudomonas aeruginosa [5] = assay: Antimicrobial activity against Pseudomonas aeruginosa after 24 hr by CLSI liquid dilution method; format: functional
Bacillus subtilis [6] = assay: Antimicrobial activity against Bacillus subtilis after 24 hr by CLSI liquid dilution method; format: functional
Escherichia coli [7] = assay: Antimicrobial activity against Escherichia coli after 24 hr by CLSI liquid dilution method; format: functional
Saccharomyces cerevisiae [8] = assay: Antimicrobial activity against Saccharomyces cerevisiae at 100 ug after 24 hr by cup diffusion technique; format: functional; details: read-out: DIZ
Staphylococcus aureus [9] = assay: Antimicrobial activity against Staphylococcus aureus at 100 ug after 24 hr by cup diffusion technique; format: functional; details: read-out: DIZ
Pseudomonas aeruginosa [10] = assay: Antimicrobial activity against Pseudomonas aeruginosa after 24 hr by cup diffusion technique; format: functional
Bacillus subtilis [11] = assay: Antimicrobial activity against Bacillus subtilis at 100 ug after 24 hr by cup diffusion technique; format: functional; details: read-out: DIZ
Escherichia coli [12] = assay: Antimicrobial activity against Escherichia coli at 100 ug after 24 hr by cup diffusion technique; format: functional; details: read-out: DIZ
[13] = Antioxidant activity assessed as DPPH scavenging activity at 50 ug after 30 min by spectrophotometry; format: functional

SMILES | Activity (Escherichia coli [1]) | Activity (Albumin) | MIC (Saccharomyces cerevisiae [3]) [µg/mL] | MIC (Staphylococcus aureus [4]) [µg/mL] | MIC (Pseudomonas aeruginosa [5]) [µg/mL] | MIC (Bacillus subtilis [6]) [µg/mL] | MIC (Escherichia coli [7]) [µg/mL] | inhibition [2] [%] | zone of inhibition at 100 µg/disc (Saccharomyces cerevisiae [8]) [mm] | zone of inhibition at 100 µg/disc (Staphylococcus aureus [9]) [mm] | diameter of the inhibition zone (DIZ) (Pseudomonas aeruginosa [10]) [mm] | zone of inhibition at 100 µg/disc (Bacillus subtilis [11]) [mm] | zone of inhibition at 100 µg/disc (Escherichia coli [12]) [mm] | Activity [13] [%]
N=C(N)c1ccc(-c2ccc(-c3ccco3)o2)cc1 [4-(2,2'-BIFURAN-5-YL)BENZAMIDINE] | Active | Active | 15 (≈ 59.5 µM) | 20 (≈ 79.3 µM) | 15 (≈ 59.5 µM) | 15 (≈ 59.5 µM) | 20 (≈ 79.3 µM) | 39.7 | 11 | 8 | 10 | 9 | 6 | 
N#Cc1ccc(-c2ccc(-c3ccco3)o2)cc1 [4-(2,2'-BIFURAN-5-YL)BENZONITRILE] | Active | Active | 2.5 (≈ 10.6 µM) | 2 (≈ 8.5 µM) | 5 (≈ 21.3 µM) | 2.5 (≈ 10.6 µM) | 2.5 (≈ 10.6 µM) | 42.4 | 16 | 18 | 16 | 19 | 18 | 
N=C(N)c1ccc(-c2ccc(-c3cccs3)s2)cc1 [4-(2,2'-BITHIOPHENE-5-YL)BENZAMIDINE] | Active | Not Active | 10 (≈ 35.2 µM) | 15 (≈ 52.7 µM) | 20 (≈ 70.3 µM) | 15 (≈ 52.7 µM) | 10 (≈ 35.2 µM) | 48.1 | 12 | 8 | 8 | 9 | 11 | 51.9
N#Cc1ccc(-c2ccc(-c3cccs3)o2)cc1 [4-[5-(THIOPHEN-2-YL)FURAN-2-YL]BENZONITRILE] | Active | Not Active | 10 (≈ 39.8 µM) | 15 (≈ 59.7 µM) | 15 (≈ 59.7 µM) | 10 (≈ 39.8 µM) | 15 (≈ 59.7 µM) | 46.9 | 15 | 12 | 16 | 14 | 12 | 53.1
N#Cc1ccc(-c2ccc(-c3ccco3)o2)nc1 [6-(2,2'-BIFURAN-5-YL)NICOTINONITRILE] | Active | Not Active | 2 (≈ 8.47 µM) | 2.5 (≈ 10.6 µM) | 5 (≈ 21.2 µM) | 5 (≈ 21.2 µM) | 7.5 (≈ 31.7 µM) | 34.9 | 20 | 17 | 16 | 16 | 14 | 
N#Cc1ccc(-c2ccc(-c3cccs3)s2)nc1 [6-(2,2'-BITHIOPHEN-5-YL)NICOTINONITRILE] | Active | Not Active | 2.5 (≈ 9.32 µM) | 15 (≈ 55.9 µM) | 7.5 (≈ 27.9 µM) | 10 (≈ 37.3 µM) | 15 (≈ 55.9 µM) | 52.9 | 19 | 13 | 15 | 12 | 13 | 55.4
N=C(N)c1ccc(-c2ccc(-c3cccs3)o2)nc1 [6-[5-(THIOPHEN-2-YL)FURAN-2-YL]NICOTINAMIDINE] | Active | Active | 15 (≈ 55.7 µM) | 10 (≈ 37.1 µM) | 20 (≈ 74.3 µM) | 15 (≈ 55.7 µM) | 15 (≈ 55.7 µM) | 44.2 | 10 | 11 | 7 | 5 | 8 | 
CC1(C)S[C@@H]2[C@H](NC(=O)[C@H](N)c3ccccc3)C(=O)N2[C@H]1C(=O)O [AMPICILLIN] |  |  | 7.5 (≈ 21.5 µM) | 10 (≈ 28.6 µM) | 15 (≈ 42.9 µM) | 15 (≈ 42.9 µM) | 10 (≈ 28.6 µM) |  | 17 | 12 | 12 | 18 | 16 | 

Continued by falling MIC (Saccharomyces cerevisiae [3]), values first:

Activity (Escherichia coli [1]) | Activity (Albumin) | MIC (Saccharomyces cerevisiae [3]) [µg/mL] | MIC (Staphylococcus aureus [4]) [µg/mL] | MIC (Pseudomonas aeruginosa [5]) [µg/mL] | MIC (Bacillus subtilis [6]) [µg/mL] | MIC (Escherichia coli [7]) [µg/mL] | SMILES | inhibition [2] [%] | zone of inhibition at 100 µg/disc (Saccharomyces cerevisiae [8]) [mm] | zone of inhibition at 100 µg/disc (Staphylococcus aureus [9]) [mm] | diameter of the inhibition zone (DIZ) (Pseudomonas aeruginosa [10]) [mm] | zone of inhibition at 100 µg/disc (Bacillus subtilis [11]) [mm] | zone of inhibition at 100 µg/disc (Escherichia coli [12]) [mm] | Activity [13] [%]
Active | Active | 10 (≈ 37.4 µM) | 20 (≈ 74.8 µM) | 10 (≈ 37.4 µM) | 20 (≈ 74.8 µM) | 15 (≈ 56.1 µM) | N#Cc1ccc(-c2ccc(-c3cccs3)s2)cc1 [4-(2,2'-BITHIOPHEN-5-YL)BENZONITRILE] | 57.8 | 13 | 9 | 12 | 12 | 10 | 61.8
Active | Not Active | 10 (≈ 39.5 µM) | 15 (≈ 59.2 µM) | 15 (≈ 59.2 µM) | 15 (≈ 59.2 µM) | 15 (≈ 59.2 µM) | N=C(N)c1ccc(-c2ccc(-c3ccco3)o2)nc1 [6-(2,2'-BIFURAN-5-YL)NICOTINAMIDINE] | 44.6 | 12 | 6 | 7 | 7 | 9 | 
Active | Active | 10 (≈ 39.6 µM) | 15 (≈ 59.5 µM) | 10 (≈ 39.6 µM) | 15 (≈ 59.5 µM) | 10 (≈ 39.6 µM) | N#Cc1ccc(-c2ccc(-c3cccs3)o2)nc1 [6-[5-(THIOPHEN-2-YL)FURAN-2-YL]NICOTINONITRILE] | 40.3 | 16 | 12 | 16 | 13 | 14 | 
 | Active | 7.5 (≈ 27.9 µM) | 10 (≈ 37.3 µM) | 15 (≈ 55.9 µM) | 10 (≈ 37.3 µM) | 15 (≈ 55.9 µM) | N=C(N)c1ccc(-c2ccc(-c3cccs3)o2)cc1 [4-[5-(THIOPHEN-2-YL)FURAN-2-YL]BENZAMIDINE] | 53.7 | 12 | 10 | 9 | 11 | 9 | 57.7
Active | Active | 5 (≈ 17.5 µM) | 15 (≈ 52.6 µM) | 15 (≈ 52.6 µM) | 15 (≈ 52.6 µM) | 10 (≈ 35 µM) | N=C(N)c1ccc(-c2ccc(-c3cccs3)s2)nc1 [6-(2,2'-BITHIOPHENE-5-YL)NICOTINAMIDINE] | 51.4 | 14 | 10 | 9 | 7 | 10 | 58.2
